# Laboratory results taken from patent publication US20260027175A1, “COMPOSITIONS AND METHODS FOR TREATING A COGNITIVE DEFICIT” (priority 2022, published 2026).
# Legend:
# ICV-OKA rats = test: Cognitive performance in Morris water maze task, ICV-OKA rats; format: in vivo, Wistar rats; conditions: ICV injection 100 ng each ventricle, 15th day
# Experimental: Adult male Wistar rats (200-230 g, 2 months old) were used.
# Nuclear factor kappa-light-chain-enhancer of activated B cells (NF-KB) and BDNF ELISA kits were procured from Imegenex, San Diego, USA and Millipore, USA respectively. All other chemicals used for biochemical estimations were of analytical grade. SAAC was dissolved in double distilled water (DDW) while okadaic acid was dissolved in artificial cerebrospinal fluid (aCSF) (2.9 mM KCl, 147 mM NaCl, 1.7 mM CaCl2, 1.6 mM MgCl2, and 2.2 mM D-glucose).
# (§1) Intracerebroventricular injection of okadaic acid was performed according to the procedure of Kamat et al. (2010). Rats were anesthetized with thiopentone (Neon Laboratories, India, 45 mg/kg, i.p.). The scalp was shaved, cleaned, and cut to expose the skull. The head was positioned in a stereotaxic frame and a midline sagittal incision was made in the scalp. Burr holes were drilled in the skull on both sides over the lateral ventricles by using the following coordinates: 0.8 mm posterior to bregma; 1.5 mm lateral to sagittal suture and 3.6 mm beneath the surface of the brain (Paxinos et al., 1980). […]
# (§2) The experimental design is illustrated in FIG. 1. […] Memory impairment was assessed by Morris Water Maze on days 15th, 21st, 28th. […]
# The acquisition and retention of memory was evaluated by using Morris water maze (Morris et al., 1982; Tuzcu and Baydas, 2006). […]
# BDNF = test: Quantification of brain derived neurotrophic factor (BDNF) in hippocampus of ICV-OKA rats; format: in vivo, Wistar rats; conditions: ICV-OKA rats compared to sham group
# Experimental: Intracerebroventricular injection of okadaic acid was performed according to the procedure of Kamat et al. (2010). Rats were anesthetized with thiopentone (Neon Laboratories, India, 45 mg/kg, i.p.). The scalp was shaved, cleaned, and cut to expose the skull. The head was positioned in a stereotaxic frame and a midline sagittal incision was made in the scalp. Burr holes were drilled in the skull on both sides over the lateral ventricles by using the following coordinates: 0.8 mm posterior to bregma; 1.5 mm lateral to sagittal suture and 3.6 mm beneath the surface of the brain (Paxinos et al., 1980). Okadaic acid (200 ng) was injected bilaterally making the total dose of 100 ng in each ventricle. The concentration of okadaic acid in aCSF was adjusted so as to deliver 4 μl of the solution. Sham animals received ICV injection of the same volume of aCSF. The skin was sutured after injection followed by daily application of antiseptic powder (Neosporin). Postoperatively, the rats were fed with oral glucose and normal pellet diet for 4 days, followed by normal pellet diet alone.
# as §2
# The quantification of BDNF was done with the help and instructions provided by Millipore, USA quantikine rat BDNF immunoassay kit.
# Phospho-Tau in neurons = test: Okadaic acid induced Tau hyper-phosphorylation in primary cortical neurons (Phospho-Tau/MAP2 immunofluorescence); format: cell-based, rat
# Experimental: The potential efficacy of the test compound (SAAC) against Alzheimer's disease was evaluated using an in vitro model in which Tau hyper-phosphorylation Is Induced by pharmacological treatment.
# The test compound was tested in culture medium at […], and 10%. Positive control of reversion of hyperphosphorylation was […] at 3 mM.
# Primary cortical cultures from E 19 rat embryos.
# Phospho-Tau intensity in neurons and percentage of neurons with hyperphosphorylated Tau.
# Cortical neurons from E 19 rat embryos were harvested and plated in 96 well plates. After 9 days in vitro, cells were treated with LiCI at 3 mM for 24 hours as a positive neuroprotective control or the test compound (SAAC) at 7 different concentrations. Another plate was pre-treated with the test compound (SAAC) at 7 different concentrations for 4 hours.
# At the end of treatment durations, cells were treated with okadaic acid (OKA) for 3 hours. The cells were then fixed and processed for immunofluorescence analysis of Phospho-Tau (P-Tau) in neurons (Phospho-Tau labelling and neuronal labelling with MAP2 antibody).
# After 9 days in vitro, neurons were treated with LiCI at 3 mM for 24 hours as a positive neuroprotective control (FIG. 5) or the test compound (SAAC) at 7 different concentrations (FIG. 7 & FIG. 8). At the end of treatment duration, cells were treated with okadaic acid (OKA) for 3 hours. After Phospho-Tau and MAP2 labelling, the signals were acquired and the mean intensity of Phospho-Tau staining in the neurons as well as the percentage of neurons with a high Phospho-Tau level was assessed.
# NF-κβ p65 subunit = test: Quantification of NF-KB p65 unit (ActivELISA) in hippocampus of ICV-OKA rats; format: in vivo, Wistar rats; conditions: ICV-OKA administered rats
# Experimental: as §1, with “1980). Okadaic acid (200 ng) was injected bilaterally making the total dose of 100 ng in each ventricle.” for “1980).”
# as §2
# The NF-KB/p65 ActivELISA kit (Imgenex, USA) was used to measure NF-KB-free p65 in the nuclear fraction of different brain regions. […] The NF-KB ActivELISA is a sandwich ELISA in which free p65 was captured by anti-p65 antibody-coated plates and the amount of bound p65 was detected by adding a second anti-p65 antibody followed by alkaline phosphatase conjugated secondary antibody using colorimetric detection in an ELISA plate reader at 405 nm. The results were expressed as ng/mg of protein.
# c-Jun (substrate of JNK) = test: Phospho c-Jun immunofluorescence, high content imaging; format: cell-based; conditions: reference treatment: 1 μM anisomycin 10 μg/mL, 30 min
# Experimental: SACC was received as an aqueous stock solution. The different solutions were created by performing cascade dilutions in the culture medium.
# Cells were seeded at 12 10^3 cells/well in 96 well plates and cultured for 24 h. Subsequently, cells were exposed to the different tested conditions (reference treatment: 1 μM anisomycin 10 μg/mL, 30 min). At the end of the treatment, the cells were processed for immunofluorescence with a specific antibody against the phosphorylated form of c-Jun. The fluorescent immune-staining was subsequently imaged by high content imaging. Single cell analysis of the phospho c-Jun immune-staining was performed.
# The pharmacological modulators that decreased the cytotoxic effects of 1% SACC did it on the 1% were maximally effective at 50 h treatment. Therefore, the effect of SACC was studied after 50 h treatment with 0.1%; 0.3% and 1% SACC on phosphorylation level of the c-Jun (substrate of JNK).
SMILES,lower ability to find the platform and learn its location (ICV-OKA rats) [fold],decrease in brain derived neurotrophic factors (BDNF) [%],"increase in the percentage of neurons with high Phospho-Tau levels (Phospho-Tau in neurons; 10 nM okadaic acid, 3 hours) [fold]","phosphorylation of Tau (Phospho-Tau in neurons; 10 nM okadaic acid, 4 h treatment experiment)","increase in the percentage of neurons with high Phospho-Tau levels (Phospho-Tau in neurons; 100 nM okadaic acid, 3 hours) [fold]","phosphorylation of the Tau protein (Phospho-Tau in neurons; okadaic acid 10 nM and 100 nM, 3 hours)",amount of phosphorylated tau in the axons and dendrites of the neurons (Phospho-Tau in neurons; okadaic acid treatment alone),elevation of NF-κβ p65 subunit in hippocampus (NF-κβ p65 subunit) [%],c-Jun phosphorylation (c-Jun (substrate of JNK))
C=C1[C@@H](O)[C@@H]2O[C@]3(CC[C@H](/C=C/[C@@H](C)[C@@H]4CC(C)=C[C@@]5(O[C@H](C[C@@](C)(O)C(=O)O)CC[C@H]5O)O4)O3)CC[C@H]2O[C@@H]1[C@@H](O)C[C@H](C)[C@H]1O[C@@]2(CCCCO2)CC[C@H]1C [okadaic acid],1.5,40,~2,not able to elicit any increase,~3,increased the phosphorylation of the Tau protein in a dose dependent way,greatly increased,105,–
"COc1ccc(C[C@H]2NC[C@H](O)[C@H]2OC(C)=O)cc1 [Aniosomycin, anisomycin]",–,–,–,–,–,–,–,–,induced c-Jun phosphorylation in the total population of treated cells
